From PMC8325119, “A Novel Class of Functionalized Synthetic Fluoroquinolones with Dual Antiproliferative - Antimicrobial Capacities” (Asian Pacific Journal of Cancer Prevention : APJCP, 2021)
≈ marks a conversion by molar mass, not a printed value. Where “and” joins values, the source holds several entries; their conditions need not be identical. Equal entries are not always repeated. Where two headings read alike, the source gives them in different places.

Legend:
K562 cell line = test: SRB cytotoxicity assay, K562 leukaemia cell line
Description: (§1) All reagents and chemicals of analytical grade were obtained from Sigma (Dorset, UK); unless stated otherwise. All chemicals, reagents and solvents (of analytical grade) were used directly without further purification. MCF7 cell line ATCC® HTB-22™, T47D cell line ATCC® HTB-133™, K562 cell line ATCC® CCL-243™, Panc1 cell line ATCC® CRL-1469™. A375.S2 cell line ATCC® CRL-1872™, A549 cell line ATCC® CCL-185™, HELA cell line ATCC® CCL-2™ were cultured in Dulbecco’s modified eagle’s medium (DMEM). (DMEM) containing foetal bovine serum (FBS) (Bio Whittaker, Verviers, Belgium), 4-(2-hydroxyethyl)-1-piperazine ethane sulfonic acid (HEPES) Buffer, L-glutamine, gentamicin, penicillin, and streptomycin sulphate (Sigma, St. Luis, MO, USA), trypsin, trypan blue, Ciprofloxacin HCl from Aarti drugs Ltd/India, was a kind gift from Pharma International Company- Amman; Fluconazole from Neopharma, United Arab Emirates, a kind gift from Pharmaceutical Research Unit, Amman; Trypon soya agar (TSA), trypon soya broth (TSB), sabouraud dextrose agar (SDA) were obtained from Liofilchem (Italy) or Oxoid LTD (Basingstoke, England), they were reconstituted and sterilized by autoclave at 121 °C for 15 min.
(§2) The cytotoxicity measurements were determined using Sulforhodamine B (SRB) colorimetric assay for cytotoxicity screening. The mechanism of reduction of cell viability was adopted as described previously (Arabiyat et al., 2016a,b; 2017; Alabsi et al., 2018; Jumah, 2018; AlShahrabi et al., 2020). Human periodontal ligament fibroblasts (PDL) are a primary normal cell culture for verification of selective cytotoxicity. […] Selectivity ratio as indicative factor of the safety of compounds was calculated by dividing IC50 of tested compound on normal fibroblasts by IC50 of the same compound on specific pathological cell line (Hoffman et al., 2011).

MCF7 cell line = test: SRB cytotoxicity assay, MCF7 breast cancer cell line
Description: as §1, §2

A375.S2 cell line = test: SRB cytotoxicity assay, A375.S2 melanoma cell line
Description: as §1, §2

PDL Fibroblasts = test: SRB cytotoxicity on normal periodontal ligament fibroblasts, selective cytotoxicity; format: cell-based, Human; conditions: for IC50 / IC50 value PDL Fibroblasts: normal fibroblasts, SRB, 72 h, mean ± SD; for Selectivity index SI (K562): IC50 on PDL fibroblasts divided by IC50 on K562; for Selectivity index SI (HELA): IC50 on PDL fibroblasts divided by IC50 on HELA
Description: as §2

HELA cell line = test: SRB cytotoxicity assay, HELA cervical cancer cell line
Description: as §1, §2

T47D cell line = test: cells; conditions: 72 h; for IC50: read-out: Cytotoxicity IC50 value, T47D cell line; for Cytotoxicity IC50 value, T47D cell line: value in brackets
Description: as §1, §2

PANC 1 cell line = test: SRB cytotoxicity assay, PANC 1 pancreatic cancer cell line
Description: as §1, §2

A549 cell line = test: SRB cytotoxicity assay, A549 lung cancer cell line
Description: as §1, §2

[1] = Homo sapiens, K562, 72 h, read-out: Cytotoxicity IC50 value, K562 cell line, SRB, 72 h, 0.1-200 μg/mL range, mean ± SD, value in brackets
[2] = Homo sapiens, K562, 72 h, read-out: Cytotoxicity IC50 value, K562 cell line, SRB, 72 h, 0.1-200 μg/mL range, mean ± SD, NI = lack of cytotoxicity in range
[3] = Homo sapiens, MCF7, 72 h, read-out: Cytotoxicity IC50 value, MCF7 cell line
[4] = Homo sapiens, A375-S2, 72 h, read-out: Cytotoxicity IC50 value, A375.S2 cell line
[5] = Homo sapiens, Fibroblast, 0.1-200 μg/mL range, NI = lack of cytotoxicity in range
[6] = Homo sapiens, Fibroblast, value in brackets
[7] = Homo sapiens, HeLa, 72 h, read-out: Cytotoxicity IC50 value, HELA cell line, SRB, 72 h, 0.1-200 μg/mL range, mean ± SD, value in brackets
[8] = Homo sapiens, HeLa, 72 h, read-out: Cytotoxicity IC50 value, HELA cell line, SRB, 72 h, 0.1-200 μg/mL range, mean ± SD, NI = lack of cytotoxicity in range
[9] = Homo sapiens, PANC-1, 72 h, read-out: Cytotoxicity IC50 value, PANC 1 cell line
[10] = Homo sapiens, A549, 72 h, read-out: Cytotoxicity IC50 value, A549 cell line
[11] = 0.1-200 μg/mL range, NI = lack of cytotoxicity in range
[12] = SRB, 0.1-200 μg/mL range, mean ± SD
[13] = SRB, 0.1-200 μg/mL range, mean ± SD, NI = lack of cytotoxicity in range

Row | Compound | IC50 (K562 cell line; [1]) | IC50 (K562 cell line; [2]) | IC50 (MCF7 cell line; [3]) | IC50 (A375.S2 cell line; [4]) | IC50 (PDL Fibroblasts; [5]) | IC50 (PDL Fibroblasts; [6]) | Selectivity index SI (K562) (PDL Fibroblasts) | IC50 (HELA cell line; [7]) | IC50 (HELA cell line; [8]) | IC50 (T47D cell line; Homo sapiens, T47D) | IC50 (PANC 1 cell line; [9]) | IC50 (A549 cell line; [10]) | IC50 (PDL Fibroblasts; [11]) | IC50 value PDL Fibroblasts (PDL Fibroblasts; value in brackets) | also measured
1 | COc1cccc(-n2nnc3c4c(cc(F)c32)c(=O)c(C(=O)O)cn4C2CC2)c1 [5b, 9-cyclopropyl-4-fluoro-3-(3-methoxy-phenyl)-6-oxo-6,9-dihydro-3H-[1,2, and 3] triazolo [4,5-h] quinoline-7-carboxylic acid] | 4.56 µg/mL | 11.6 ± 0.61 µM | 112 µM and 44.2 µg/mL | 364 µM and 143 µg/mL | 143 ± 10.8 µM | 56.4 µg/mL | 12.35 | 26.3 µg/mL | 66.9 ± 2.73 µM | 18 µM and 7.08 µg/mL | 178 µM and 70.2 µg/mL | 196 µM and 77.2 µg/mL | – | – | –
2 | COc1ccc(Nc2c(F)cc3c(=O)c(C(=O)O)cn(C4CC4)c3c2[N+](=O)[O-])c(OC)c1 [3g, 1-cyclopropyl-7-(2,4-dimethoxy-phenylamino)-6-fluoro-8-nitro-4-oxo-1,4-dihydro-quinoline-3-carboxylic acid] | – | > 200 µg/mL | > 200 µg/mL | > 200 µg/mL | > 200 µg/mL | – | – | – | > 200 µg/mL | > 200 µg/mL | > 200 µg/mL | > 200 µg/mL | – | – | –
3 | COc1ccccc1Nc1c(F)cc2c(=O)c(C(=O)O)cn(C3CC3)c2c1N [4a, 8-amino-1-cyclopropyl-6-fluoro-7-(2-methoxy-phenylamino)-4-oxo-1,4-dihydro-quinoline-3-carboxylic acid] | 16.9 µg/mL | 44 ± 3.88 µM | > 200 µg/mL | 72.3 µM and 27.8 µg/mL | 140 ± 10.5 µM | 53.8 µg/mL | – | 15.5 µg/mL | 40.4 ± 6.03 µM | 95.8 µM and 36.8 µg/mL | 113 µM and 43.4 µg/mL | 153 µM and 58.7 µg/mL | – | – | Selectivity index SI (HELA) (PDL Fibroblasts): 3.46
4 | CCn1cc(C(=O)O)c(=O)c2cc(F)c(Nc3cccc(OC)c3)c([N+](=O)[O-])c21 [11b, 1-ethyl-6-fluoro-7-(3-methoxy-phenylamino)-8-nitro-4-oxo-1,4-dihydro-quinoline-3-carboxylic acid] | 23.3 µg/mL | 58 ± 9.12 µM | > 200 µg/mL | > 200 µg/mL | > 200 µg/mL | – | – | 79 µg/mL | 197 ± 38.3 µM | > 200 µg/mL | > 200 µg/mL | > 200 µg/mL | – | – | –
5 | N.N.[Cl][Pt][Cl] [Cisplatin, cisplatin, reference compound] | – | – | – | – | – | – | – | – | – | – | – | – | 0.71 ± 0.13 µM | 0.21 ± 0.04 µg/mL | –
6 | CCn1cc(C(=O)O)c(=O)c2cc(F)c(Nc3ccc(OC)cc3OC)c(N)c21 [12c, 8-amino-7-(2,4-dimethoxy-phenylamino)-1-ethyl-6-fluoro-4-oxo-1,4-dihydro-quinoline-3-carboxylic acid] | 10.6 µg/mL | 26.4 ± 4.54 µM | 101 µM and 40.4 µg/mL | 67.3 µM and 27 µg/mL | 43.8 ± 6.21 µM | 17.6 µg/mL | 1.65 | 15.6 µg/mL | 38.8 ± 1.91 µM | – | 93.5 µM and 37.5 µg/mL | 40.9 µM and 16.4 µg/mL | – | – | –
7 | CCn1cc(C(=O)O)c(=O)c2cc(F)c3c(nnn3-c3cccc(OC)c3)c21 [13b, 9-ethyl-4-fluoro-3-(3-methoxy-phenyl)-6-oxo-6,9-dihydro-3H-[1,2, and 3] triazolo [4,5-h] quinoline-7-carboxylic acid] | – | – | – | – | – | – | – | – | – | – | – | – | 332 ± 14.6 µM | 126.55 ± 5.58 µg/mL (≈ 331 µM) | Cytotoxicity IC50 value, K562 cell line (K562 cell line): 22.13 ± 0.85 µg/mL; IC50 (K562 cell line): 58 ± 2.22 µM; Cytotoxicity IC50 value, MCF7 cell line (MCF7 cell line): 159.18 ± 8.68 µg/mL; IC50 (MCF7 cell line): 417 ± 22.8 µM; Cytotoxicity IC50 value, A375.S2 cell line (A375.S2 cell line): 38.96 ± 3.39 µg/mL; IC50 (A375.S2 cell line): 102 ± 8.88 µM; Selectivity index SI (HELA) (PDL Fibroblasts): 7.19; Cytotoxicity IC50 value, HELA cell line (HELA cell line): 15.99 ± 1.35 µg/mL; IC50 (HELA cell line): 41.9 ± 3.55 µM; Cytotoxicity IC50 value, T47D cell line (T47D cell line; [12]): 44.68 ± 3.49 µg/mL; IC50 (T47D cell line; [13]): 117 ± 9.15 µM; Cytotoxicity IC50 value, A549 cell line (A549 cell line): 95.87 ± 9.20 µg/mL; IC50 (A549 cell line): 251 ± 24.1 µM
8 | CCOC(=O)c1cn(C2CC2)c2c([N+](=O)[O-])c(Cl)c(F)cc2c1=O [1E] | 32.4 µg/mL | 99.1 ± 7.5 µM | 220 µM and 71.9 µg/mL | 271 µM and 121 µg/mL | – | – | – | 43.3 µg/mL | 133 ± 4.78 µM | 108 µM and 35.4 µg/mL | 79.3 µM and 25.9 µg/mL | 447 µM and 200 µg/mL | – | – | –
9 | COc1ccccc1Nc1c(F)cc2c(=O)c(C(=O)O)cn(C3CC3)c2c1[N+](=O)[O-] [3a, 1-cyclopropyl-6-fluoro-7-(2-methoxy-phenylamino)-8-nitro-4-oxo-1,4-dihydro-quinoline-3-carboxylic acid] | – | – | – | – | 184 ± 3.69 µM | 76 µg/mL | – | – | – | > 200 µg/mL | – | – | – | – | Selectivity index SI (MCF7) (PDL Fibroblasts; IC50 on PDL fibroblasts divided by IC50 on MCF7): 2.71
10 | CCn1cc(C(=O)O)c(=O)c2cc(F)c3c(nnn3-c3ccccc3OC)c21 [13a, 9-ethyl-4-fluoro-3-(2-methoxy-phenyl)-6-oxo-6,9-dihydro-3H-[1,2, and 3] triazolo [4,5-h] quinoline-7-carboxylic acid] | – | – | – | – | – | – | 40.01 | – | – | – | – | – | 276 ± 20.7 µM | 105.13 ± 7.90 µg/mL (≈ 275 µM) | Cytotoxicity IC50 value, K562 cell line (K562 cell line): 2.66 ± 0.49 µg/mL; IC50 (K562 cell line): 6.98 ± 1.28 µM; Cytotoxicity IC50 value, A375.S2 cell line (A375.S2 cell line): 203.87 ± 4.80 µg/mL; IC50 (A375.S2 cell line): 535 ± 12.6 µM; Cytotoxicity IC50 value, HELA cell line (HELA cell line): 20.06 ± 2.62 µg/mL; IC50 (HELA cell line): 52.6 ± 6.86 µM; Cytotoxicity IC50 value, T47D cell line (T47D cell line; [12]): 21.93 ± 0.87 µg/mL; IC50 (T47D cell line; [13]): 57.5 ± 2.27 µM; Cytotoxicity IC50 value, PANC 1 cell line (PANC 1 cell line): 118.30 ± 6.71 µg/mL; IC50 (PANC 1 cell line): 310 ± 17.6 µM; Cytotoxicity IC50 value, A549 cell line (A549 cell line): 94.32 ± 1.44 µg/mL; IC50 (A549 cell line): 247 ± 3.78 µM
